The source of these data is ChEMBL document CHEMBL1201862, “PubChem BioAssay data set” (2004).

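The compound was tested at five concentrations on cells cultured in 96-well plates, with a 48-hour exposure period. GI50: concentration for 50% inhibition of growth.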 Activity calls are given as the source filed them. No stated cut-off is given here; in the data, active = GI50 up to about 1.1 µM and inactive = higher.

Test systems include SF-295; ACHN; COLO 205; KM12; CAKI-1; OVCAR-3; HOP-62; RPMI-8226; UACC-62; U-251; SNB-75; 786-0; EKVX; DU-145; HCT-15; SF-539; RXF 393; OVCAR-8; OVCAR-4; NCI-H23.
Common to all, as to test: NCI anticancer screen, dose series, 48 h

Turning to `COc1ccc2c(c1)CCCc1c-2nc2ccccc2c1N`, the GI50 in the assay with SF-295 is 11.1 µM (inactive); in the assay with ACHN, 13.6 µM (inactive); with COLO 205, 1.69 µM (inactive); in the assay on KM12, 14 µM (inactive); in the assay on CAKI-1, 9.02 µM (inactive); in the assay with OVCAR-3, 12.9 µM (inactive). In addition, the GI50 was 1.52 µM (inactive) in the assay on HOP-62; 5.87 µM (inactive) with RPMI-8226; 12.3 µM (inactive) in the assay with UACC-62; 12.7 µM (inactive) with U-251; 10.7 µM (inactive) in the assay with SNB-75; 6.11 µM (inactive) in the assay with 786-0. The GI50 was 6.28 µM (inactive) with EKVX; 13.4 µM (inactive) in the assay with DU-145; 12.5 µM in the assay with HCT-15; 12.4 µM (inactive) in the assay with SF-539; 4.72 µM (inactive) in the assay with RXF 393; 12.9 µM (inactive) in the assay with OVCAR-8. Besides, the GI50 with OVCAR-4 was 12.6 µM (inactive); in the assay on NCI-H23, 15.4 µM (inactive).

Turning to `C=C[C@H]1CN2CCc3c([nH]c4c([C@@H]5CCCN5C)c(O)ccc34)[C@@H]2C[C@@H]1C[C@H]1c2[nH]c3ccccc3c2CCN1C`, the GI50 was 1.01 µM (active) in the assay with SF-295; 1.92 µM (inactive) in the assay on ACHN; 1.26 µM (inactive) with COLO 205; 1.41 µM (inactive) with KM12; 1.61 µM (inactive) with CAKI-1; 1.36 µM (inactive) in the assay on OVCAR-3. The GI50 in the assay on HOP-62 was 1.31 µM (inactive); in the assay on RPMI-8226, 0.35 µM (active); with UACC-62 it was 1.68 µM (inactive); with U-251, 1.49 µM (inactive); in the assay on SNB-75 it was 0.813 µM (active); in the assay with 786-0, 0.437 µM (active). The GI50 in the assay with EKVX is 1.58 µM (inactive); in the assay on DU-145 it was 1.48 µM (inactive); with HCT-15 it was 1.02 µM; in the assay with SF-539, 1.57 µM (inactive); with RXF 393 it was 0.215 µM (active); with OVCAR-8 it was 1.69 µM (inactive). Moreover, the GI50 in the assay on OVCAR-4 was 1.42 µM (inactive); with NCI-H23, 1.85 µM (inactive).

In the case of `N=C(N)NS(=O)(=O)c1ccc(Nc2c3ccccc3nc3c(C(=O)NCCO)cccc23)cc1`, the GI50 was 0.263 µM (active) in the assay on SF-295; 0.219 µM (active) in the assay with ACHN; 0.16 µM (active) with COLO 205; 0.177 µM (active) with KM12; 0.205 µM (active) in the assay with CAKI-1; 0.142 µM (active) with OVCAR-3. Also, the GI50 in the assay with HOP-62 is 0.186 µM (active); in the assay on RPMI-8226, 0.162 µM (active); with UACC-62, 0.167 µM (active); in the assay on U-251, 0.184 µM (active); in the assay on SNB-75, 22.6 µM (inactive); with 786-0 it was 0.191 µM (active). The GI50 in the assay with EKVX was 0.248 µM (active); with DU-145 it was 0.214 µM (active); in the assay on HCT-15, 0.236 µM; in the assay on SF-539, 0.193 µM (active); in the assay with RXF 393 it was 0.173 µM (active); with OVCAR-8, 0.185 µM (active). In addition, the GI50 is 0.261 µM (active) in the assay with OVCAR-4 and 0.167 µM (active) in the assay with NCI-H23.

Consider `O=C(Cc1csc2[n+]1C(=O)/C(=C/c1ccc(Cl)cc1)S2)Nc1ccccc1`, for which the GI50 is 17.5 µM (inactive) in the assay with SF-295; 15.4 µM (inactive) in the assay with ACHN; 14.9 µM (inactive) with COLO 205; 22.5 µM (inactive) with KM12; 28.1 µM (inactive) with CAKI-1; 12.8 µM (inactive) in the assay with OVCAR-3. The GI50 in the assay on HOP-62 is 2.01 µM (inactive); in the assay with RPMI-8226, 23.4 µM (inactive); in the assay on UACC-62, 10 µM (inactive); in the assay on U-251, 16.2 µM (inactive); in the assay on SNB-75, 23.5 µM (inactive); with 786-0 it was 25.1 µM (inactive). For the same compound, the GI50 was 16.3 µM (inactive) in the assay on EKVX; 31.4 µM (inactive) in the assay on DU-145; 23.8 µM in the assay with HCT-15; 27.8 µM (inactive) with SF-539; 18.3 µM (inactive) with RXF 393; 40.7 µM (inactive) in the assay on OVCAR-8. For the same compound, the results for the GI50 in the assay on OVCAR-4 and in the assay on NCI-H23 were 30.3 µM (inactive) and 24.2 µM (inactive), respectively.

Take `O=C(O)C1C(Br)(c2ccccc2)C1(Br)c1ccccc1` (stereo not given): the GI50 in the assay on SF-295 is 37.9 µM (inactive); with ACHN, 14.3 µM (inactive); in the assay with COLO 205 it was 13.4 µM (inactive); in the assay with KM12 it was 33.4 µM (inactive); in the assay on CAKI-1 it was 23.9 µM (inactive); in the assay on OVCAR-3 it was 50.4 µM (inactive). Besides, the GI50 is 37 µM (inactive) in the assay on HOP-62; 11.8 µM (inactive) in the assay on RPMI-8226; 17.9 µM (inactive) in the assay on UACC-62; 27.6 µM (inactive) with U-251; 35.3 µM (inactive) with SNB-75; 32.3 µM (inactive) in the assay with 786-0. The GI50 was 86.7 µM (inactive) in the assay with EKVX; > 100 µM (inactive) with DU-145; 18.5 µM in the assay on HCT-15; 52.7 µM (inactive) in the assay with SF-539; 19.5 µM (inactive) in the assay on RXF 393; 23 µM (inactive) in the assay on OVCAR-8. The GI50 in the assay on OVCAR-4 was 28.7 µM (inactive); in the assay with NCI-H23, 38.4 µM (inactive).

Consider `COc1cc(/C=C/C(=O)Oc2ccc(NC(C)=O)cc2)ccc1C(=O)OCc1ccccc1`, for which the GI50 is 40.6 µM (inactive) with SF-295; > 73.8 µM (inactive) with ACHN; > 100 µM (inactive) in the assay with COLO 205; > 100 µM (inactive) in the assay on KM12; > 93.3 µM (inactive) with CAKI-1; > 100 µM (inactive) in the assay on OVCAR-3. In addition, the GI50 in the assay on HOP-62 is 53.8 µM (inactive); in the assay on RPMI-8226, > 100 µM (inactive); in the assay with UACC-62, 69.2 µM (inactive); in the assay with U-251, 41 µM (inactive); in the assay on SNB-75, 20 µM (inactive); with 786-0, 39.6 µM (inactive). In addition, the GI50 is > 100 µM (inactive) with EKVX; > 77.3 µM (inactive) with DU-145; greater than 100 µM with HCT-15; 36.3 µM (inactive) with SF-539; 28.8 µM (inactive) in the assay on RXF 393; > 88.9 µM (inactive) in the assay with OVCAR-8. Further, the GI50 with OVCAR-4 is > 96.4 µM (inactive); with NCI-H23 it was > 89.9 µM (inactive).

As for `Cn1nc(C(=O)N2CC(CCl)c3c2cc(N)c2ccccc32)cc1NC(=O)Nc1cc(C(=O)N2CC(CCl)c3c2cc(N)c2ccccc32)nn1C` (stereo not given), the GI50 in the assay with SF-295 is 1.55 µM (inactive); in the assay on ACHN it was 0.508 µM (active); in the assay on COLO 205, 0.163 µM (active); with KM12, 0.948 µM (active); in the assay with CAKI-1, 0.254 µM (active); with OVCAR-3, 0.201 µM (active). Besides, the GI50 in the assay with HOP-62 is 0.682 µM (active); in the assay on RPMI-8226, 3.3 µM (inactive); in the assay on UACC-62, 0.107 µM (active); in the assay with U-251, 0.0212 µM (active); in the assay with SNB-75, 0.0185 µM (active); in the assay on 786-0 it was 0.0547 µM (active). In addition, the GI50 in the assay on EKVX is 29 µM (inactive); with DU-145, 0.0116 µM (active); in the assay with HCT-15 it was 44.3 µM; in the assay on SF-539, 0.016 µM (active); in the assay on RXF 393, 0.0447 µM (active); with OVCAR-8, 0.249 µM (active). The GI50 was 0.449 µM (active) in the assay on OVCAR-4 and 0.0225 µM (active) in the assay with NCI-H23.

Consider `CCCCCCC/C=C1\CCC(CN(C)C)C1=O` (stereo not given), for which the GI50 is 16.3 µM (inactive) in the assay on SF-295; 17.6 µM (inactive) with ACHN; 10.2 µM (inactive) with COLO 205; 4.07 µM (inactive) in the assay with KM12; 16.3 µM (inactive) in the assay on CAKI-1; 9.38 µM (inactive) in the assay on OVCAR-3. The GI50 was 17.6 µM (inactive) with HOP-62; 0.968 µM (active) in the assay on RPMI-8226; 14.6 µM (inactive) in the assay on UACC-62; 17.5 µM (inactive) with U-251; 18.5 µM (inactive) in the assay with SNB-75; 1.76 µM (inactive) with 786-0. Also, the GI50 in the assay with EKVX was 15.5 µM (inactive); in the assay on DU-145 it was 14.7 µM (inactive); in the assay with HCT-15, 8.36 µM; with SF-539, 16.6 µM (inactive); in the assay on RXF 393, 5.93 µM (inactive); with OVCAR-8, 9.77 µM (inactive). Moreover, the GI50 was 16.6 µM (inactive) in the assay on OVCAR-4 and 16.4 µM (inactive) in the assay on NCI-H23.

As for `[N-]=[N+]=NCc1nc(N)c2c3c(sc2n1)CCCC3`, the GI50 with SF-295 was 7.38 µM (inactive); in the assay with ACHN it was 3 µM (inactive); in the assay on COLO 205 it was 3.78 µM (inactive); with KM12, 0.979 µM (active); in the assay with CAKI-1, 1.56 µM (inactive); in the assay on OVCAR-3, 2.75 µM (inactive). Further, the GI50 in the assay on HOP-62 was 3.72 µM (inactive); in the assay on RPMI-8226 it was 2.19 µM (inactive); in the assay on UACC-62, 5.06 µM (inactive); in the assay on U-251, 2.47 µM (inactive); in the assay on SNB-75 it was 7.69 µM (inactive); with 786-0 it was 0.455 µM (active). Further, the GI50 was 2.1 µM (inactive) with EKVX; 3.13 µM (inactive) with DU-145; 2.76 µM with HCT-15; 1.6 µM (inactive) with SF-539; 5.4 µM (inactive) with RXF 393; 1.51 µM (inactive) with OVCAR-8. The figures for the GI50 in the assay with OVCAR-4 and in the assay on NCI-H23 were 0.631 µM (active) and 1.3 µM (inactive), respectively.

Consider `O=c1cccc2n1C[C@H]1CNC[C@H]2C1`, for which the GI50 in the assay on SF-295, in the assay with ACHN, in the assay on COLO 205, with KM12, in the assay with CAKI-1 and in the assay on OVCAR-3 was > 100 µM (inactive) throughout. Further, the GI50 in the assay with HOP-62, in the assay on RPMI-8226, in the assay on UACC-62, with U-251, in the assay on SNB-75 and in the assay on 786-0 was > 100 µM (inactive) each time. Further, the GI50 with EKVX was > 100 µM (inactive); with DU-145, > 100 µM (inactive); in the assay with HCT-15, greater than 100 µM; in the assay on SF-539, > 100 µM (inactive); in the assay on RXF 393 it was 47 µM (inactive); with OVCAR-8 it was > 100 µM (inactive). Besides, the GI50 in the assay on OVCAR-4 and in the assay on NCI-H23 was > 100 µM (inactive) throughout.
